# In article PMC9643456, “Matching amino acids membrane preference profile to improve activity of antimicrobial peptides” (Communications Biology, 2022):
# Square brackets hold non-standard residues; d marks the D form. Ends that are not written are not given here. Peptide text beside a SMILES is read from it.
# How the values were obtained:
# DMPC:DMPG liposomes = assay: Isothermal titration calorimetry, peptide-liposome interaction; format: binding; conditions: ITC, PBS, 37 °C; 2nd run
# Protocol: Liposomes were prepared using 1,2-dimyristoyl-sn-glycero-3-(phospho-rac-(1-glycerol)) (sodium salt) (DMPG) (Avanti, Alabama, USA); 1,2-dimyristoyl-sn-glycero-3-phosphocholine (DMPC) (Avanti); and cholesterol (Sigma, Darmstadt, Germany) were used. Bacterial membrane mimic DMPC/DMPG (7/3) unilamellar vesicles (LUVs), and mammalian membrane mimic DMPC/cholesterol (10/1) vesicles with 100-nm diameters were prepared using the freeze-thaw and extrusion method. Lipids were mixed and dissolved in methanol in round-bottomed flasks then evaporated and freeze-dried overnight, yielding a thin layer of lipid covering the glass wall. PBS was added to the lipid layer, after which the PBS-lipid layer was vortexed then frozen in liquid nitrogen and thawed in 50 °C water repeatedly until no visible layer remained. LiposoFast Liposome Factory Basic unit with stabilizer (Avestin, Ottawa, Canada) was then used to extrude the liposomes 50 times through a polycarbonate membrane filter (pore diameter, 100 nm; filter diameter, 0.75 inches) (Avestin). For circular dichroism, isothermal titration calorimetry, tryptophan fluorescence, and dynamic light scattering experiments, liposomes were reconstructed and resuspended in PBS (Welgene Inc, Gyeongsangbuk-do, Korea).
# PC/PG liposome stock solutions and peptide solutions were diluted in PBS and degassed for 30 min. Peptide solutions (2 ml, 40 μM) were then loaded into a VP-ITC MicroCalorimeter (MicroCal, Northampton, USA). Liposome samples (600 μl, 2000 μM) were injected into the VP-ITC using a syringe. Measurement parameters were as follows: cell temperature, 37 °C; total injections, 30; reference power, 10; initial delay, 300; stirring speed, 300; edit mode, 10.0/12.0/200/2. Liposome solution (10 μl) was injected into the peptide solution 30 times. Each experiment was performed in duplicate. The results were calculated using MicroCal analysis.
# MDR P. aeruginosa = assay: microbe, parasite or virus in culture; conditions: for Minimum inhibitory concentrations, MDR P. aeruginosa: CLSI broth microdilution, CAMHB with 50 mg/L Ca2+, 10 mg/L Mg2+, 5 × 10^5 CFU/ml, 18 h 37 °C, no visible turbidity, triplicate, strain CCARM 2180
# In short: (§1)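 MIC was read by eye as the lowest peptide concentration leaving no visible turbidity. Peptide and mid-log cells (final 5 × 10^5 CFU/ml) were combined in cation-adjusted Mueller–Hinton broth containing 50 mg/L calcium and 10 mg/L magnesium and incubated 18 h at 37 °C.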
# MDR A. baumannii = assay: microbe, parasite or virus in culture
# In short: as §1
# MDR E. faecalis = assay: microbe, parasite or virus in culture; conditions: CAMHB plus 0.2% bovine serum albumin and 0.01% acetic acid; values marked * in Table 2
# In short: as §1
# MDR S. aureus = assay: microbe, parasite or virus in culture
# In short: as §1
# A. baumannii strains = assay: microbe, parasite or virus in culture
# Protocol: Twenty-six A. baumannii strains were clinically isolated and gifted to us by the Kyungpook National University School of Medicine. One A. baumannii strain (ATCC 17978) was purchased and gifted to us by Kyungpook National University School of Medicine. One A. baumannii strain and 10 K. pneumoniae strains (NCCP) were purchased from the National Culture Collection for Pathogens.
# To assess antimicrobial activity, the MIC50 and MIC90 were measured using broth microdilution following CLSI guidelines. […] Each experiment was performed in triplicate. Meropenem (Sigma, Darmstadt, Germany) and colistin were used as control antibiotics. Cation-adjusted Mueller–Hinton broth (CAMHB) (Becton, Dickinson and Company, Franklin Lakes, USA) with supplied calcium (50 mg/L) and magnesium (10 mg/L) was used for the CLSI-test condition. Bacteria in midlog phase and peptides were separately diluted in CAMHB. The bacteria and peptide solutions were then mixed in 96-well polyethylene plates (SPL, Gyeonggi-do, Korea) and incubated for 18 h at 37 °C. The final concentration for bacteria was 5 × 10^5 CFU/ml. […] The MIC was defined to be the lowest concentration of peptide without visible turbidity by comparing with control antibiotics with the unaided eye. […] Each experiment was performed in triplicate. MICs in albumin and acetic acid solutions were measured using the same protocol but with 0.2% bovine serum albumin (Bovogen, Keilor, Australia), 0.01% acetic acid (Merck, New Jersey, USA), and CAMHB with both calcium and magnesium. In addition, MICs used in the antibiotic resistance acquisition test, the outer–inner membrane permeation test, and the transmembrane potential test and for FE-SEM were individually determined. The final bacterial concentrations used were as follows: for resistance acquisition, optical density (OD) 0.01; for outer–inner membrane permeability assays (LB), OD 0.1; for the transmembrane potential test, 1 × 10^8 CFU/ml (OD 0.171); […]. Inhibitory activity unidentifiable by direct observation was determined by counting the CFUs. Each experiment was performed at least twice.
# [1] = CAMHB plus 0.2% bovine serum albumin and 0.01% acetic acid, values marked * in Table 2
compound,measurement,setting,value
RLWWRWIVR-NH2 [HLWCopW29-4],ΔS,DMPC:DMPG liposomes,-23.6 cal/moldeg
same,"MIC in 0.2% albumin and 0.01% AcOH added CLSI standard condition, MDR P. aeruginosa",MDR P. aeruginosa; [1],> 20 µM
same,"Minimum inhibitory concentrations, MDR P. aeruginosa",MDR P. aeruginosa,> 20 µM
same,"MIC in 0.2% albumin and 0.01% AcOH added CLSI standard condition, MDR A. baumannii",MDR A. baumannii; [1],20 µM
same,"MIC in 0.2% albumin and 0.01% AcOH added CLSI standard condition, MDR E. faecalis",MDR E. faecalis,20 µM
same,"MIC in 0.2% albumin and 0.01% AcOH added CLSI standard condition, MDR S. aureus",MDR S. aureus; [1],20 µM
same,"MIC at TM potential condition, S. aureus KCCM 40510","MDR S. aureus; bacteria OD 0.1 (5 x 10^7 cfu/ml), CAMHB, 1% DMSO",> 20 µM
CC[C@@H](C)[C@@H](NC(=O)[C@@H](Cc1c[nH]c2ccccc12)NC(=O)[C@@H](CCCNC(=N)N)NC(=O)[C@@H](CCCNC(=N)N)NC(=O)[C@H](N)CCCNC(=N)N)C(=O)N[C@H](Cc1c[nH]c2ccccc12)C(=O)N[C@@H](C(=O)N[C@@H](C(=O)N[C@H](Cc1c[nH]c2ccccc12)C(=O)N[C@H](CCCCN)C(N)=O)[C@H](C)CC)C(C)C [WCopW43] (H-[dR][dR][dR][dW][dI][dW][dV][dI][dW][dK]-NH2),Number of A. baumannii strains at MIC (μM) 0.63,A. baumannii strains; of 30 strains,15
same,Number of A. baumannii strains at MIC (μM) 1.25,A. baumannii strains; of 30 strains,14
same,Number of A. baumannii strains at MIC (μM) 2.5,A. baumannii strains; of 30 strains,0
same,Number of A. baumannii strains at MIC (μM) 5,A. baumannii strains; of 30 strains,0
same,Number of A. baumannii strains at MIC (μM) 10,A. baumannii strains; of 30 strains,0
same,Number of A. baumannii strains at MIC (μM) ≤0.31,A. baumannii strains; of 30 strains,1
same,Number of A. baumannii strains at MIC (μM) ≥20,A. baumannii strains; of 30 strains,0
same,MIC50,"A. baumannii strains; strains, 18 h",0.63 µM
same,"MIC, A. baumannii ATCC 17978","A. baumannii strains; strains, 18 h",1.25 µM
same,"MIC, A. baumannii Isolated strain 1","A. baumannii strains; strains, 18 h",1.25 µM
same,"MIC, A. baumannii Isolated strain 3","A. baumannii strains; strains, 18 h",1.25 µM
same,"MIC, A. baumannii Isolated strain 6","A. baumannii strains; strains, 18 h",0.63 µM
same,"MIC, A. baumannii Isolated strain 10","A. baumannii strains; strains, 18 h",0.63 µM
same,"MIC, A. baumannii Isolated strain 14","A. baumannii strains; strains, 18 h",1.25 µM
same,"MIC, A. baumannii Isolated strain 15","A. baumannii strains; strains, 18 h",0.63 µM
same,"MIC, A. baumannii Isolated strain 16","A. baumannii strains; strains, 18 h",1.25 µM
same,"MIC, A. baumannii Isolated strain 19","A. baumannii strains; strains, 18 h",0.63 µM
same,"MIC, A. baumannii Isolated strain 22","A. baumannii strains; strains, 18 h",0.63 µM
same,"MIC, A. baumannii Isolated strain 39","A. baumannii strains; strains, 18 h",0.63 µM
same,"MIC, A. baumannii Isolated strain 44","A. baumannii strains; strains, 18 h",1.25 µM
same,"MIC, A. baumannii Isolated strain 66","A. baumannii strains; strains, 18 h",1.25 µM
same,"MIC, A. baumannii Isolated strain 68","A. baumannii strains; strains, 18 h",1.25 µM
same,"MIC, A. baumannii Isolated strain 69","A. baumannii strains; strains, 18 h",0.63 µM
same,"MIC, A. baumannii Isolated strain 71","A. baumannii strains; strains, 18 h",0.63 µM
same,"MIC, A. baumannii Isolated strain 76","A. baumannii strains; strains, 18 h",< 0.31 µM
same,"MIC, A. baumannii Isolated strain 80","A. baumannii strains; strains, 18 h",0.63 µM
same,"MIC, A. baumannii Isolated strain 82","A. baumannii strains; strains, 18 h",0.63 µM
same,"MIC, A. baumannii Isolated strain 86","A. baumannii strains; strains, 18 h",0.63 µM
same,"MIC, A. baumannii Isolated strain 89","A. baumannii strains; strains, 18 h",1.25 µM
same,"MIC, A. baumannii Isolated strain 102","A. baumannii strains; strains, 18 h",0.63 µM
same,"MIC, A. baumannii Isolated strain 127","A. baumannii strains; strains, 18 h",1.25 µM
same,"MIC, A. baumannii Isolated strain 141","A. baumannii strains; strains, 18 h",0.63 µM
same,"MIC, A. baumannii Isolated strain 144","A. baumannii strains; strains, 18 h",1.25 µM
same,"MIC, A. baumannii Isolated strain 147","A. baumannii strains; strains, 18 h",1.25 µM
same,"MIC, A. baumannii Isolated strain 152","A. baumannii strains; strains, 18 h",0.63 µM
same,"MIC, A. baumannii KCCM 40203","A. baumannii strains; strains, 18 h",0.63 µM
same,"MIC, A. baumannii NCCP 14654","A. baumannii strains; strains, 18 h",1.25 µM
same,"Minimum inhibitory concentrations, MDR P. aeruginosa",MDR P. aeruginosa,1.25 µM
same,"Minimum inhibitory concentrations, MDR A. baumannii","MDR A. baumannii; CLSI broth microdilution, CAMHB with 50 mg/L Ca2+, 10 mg/L Mg2+, 5 × 10^5 CFU/ml, 18 h 37 °C, triplicate, strain ATCC BAA-1605",0.63 µM
same,"Minimum inhibitory concentrations, MDR S. aureus","MDR S. aureus; CLSI broth microdilution, CAMHB with 50 mg/L Ca2+, 10 mg/L Mg2+, 5 × 10^5 CFU/ml, 18 h 37 °C, triplicate, strain KCCM 40510",0.63 µM
